1 substance from US11542316B2, “S-Arrestin peptides and therapeutic uses thereof” (APITOPE INTERNATIONAL NV, priority 2017, dated 2023) can be followed below.

Ends that are not written are not given here.

This test deals with LN cells and splenocytes upon SAg or peptide restimulation. Kind of test: Ex vivo tolerization experiment, DR2tg mice. Format: in vivo. The note with it: DR2 mice, IFN-γ. As to the method: FIG. 7: Ex vivo tolerisation protocol. Mice are injected subcutaneously in the flank with 0.1 μg/ml, 1 μg/ml and 10 μg/ml peptide on days −15, −13 and −11, followed by 3 injections of 100 μg/ml on days −8, −6 and −4 (escalating dose regime). On day 0, mice are immunized subcutaneously at the base of the tail with SAg/CFA or peptide/CFA. Mice are sacrificed 10 days after immunization to measure proliferation of LN cells and splenocytes upon SAg or peptide restimulation. LN, lymph nodes.
FIG. 11: Ex vivo tolerance induction by HIP-9K1-KKK apitope. DR2 mice are injected subcutaneously in the flank with 0.1 μg/ml, 1 μg/ml and 10 μg/ml HIP-9K1-KKK on days −15, −13 and −11, followed by 3 injections of 100 μg/ml on days −8, −6 and −4 (escalating dose regime). On day 0, mice are immunized subcutaneously at the base of the tail with HIP-9FL/CFA. Mice are sacrificed 10 days after immunization to measure proliferation of LN cells and splenocytes upon SAg or peptide restimulation. Data represent mean±SEM of the concentration values for the PBS-treated mice (black lines) and peptide-treated mice (color lines). IFN-γ production expressed as IFN-γ concentration (pg/ml). Two-way ANOVA was used to measure overall treatment effects on T cell activation and p-values are written in the graphs. Bonferonni post-hoc testing was used and significant differences are indicated in the graphs (* p<0.05; **** p<0.0001). LN, lymph nodes. (A) Tolerisation against SAg in LN. (B) Tolerisation against HIP-9FL and HIP-9K1-KKK in LN. (C) Tolerisation against SAg in spleen. (D) Tolerisation against HIP-9FL and HIP-9K1-KKK in spleen.
FIG. 13: Ex vivo tolerance induction by HIP-12G1-KKK apitope. DR2 mice are injected subcutaneously in the flank with 0.1 μg/ml, 1 μg/ml and 10 μg/ml HIP-12G1-KKK on days −15, −13 and −11, followed by 3 injections of 100 μg/ml on days −8, −6 and −4 (escalating dose regime). On day 0, mice are immunized subcutaneously at the base of the tail with HIP-12AK/CFA. Mice are sacrificed 10 days after immunization to measure proliferation of LN cells and splenocytes upon SAg or peptide restimulation. Data represent mean±SEM of the concentration values for the PBS-treated mice (black lines) and peptide-treated mice (color lines). IFN-γ production expressed as IFN-γ concentration (pg/ml). Two-way ANOVA was used to measure overall treatment effects on T cell activation and p-values are written in the graphs. Bonferonni post-hoc testing was used and significant differences are indicated in the graphs (** p<0.01; *** p<0.001: **** p<0.0001). LN, lymph nodes. (A) Tolerisation against HIP-12G1-KKK and HIP-12G1 in LN. (B) Tolerisation against HIP-12G1-KKK in spleen.
DR3tg or DR2tg mice were injected subcutaneously in the flank region with 0.1 μg, 1 μg and 10 μg of peptide on days −15, −13 and −11 respectively, followed by 3 injections of 100 μg peptide on days −8, −6 and −4 (dose escalation schedule). On day 0, the mice were immunised subcutaneously in the base of the tail with 50 μg antigen (parental peptide) emulsified in CFA (peptide/CFA). Ten days after immunisation, draining lymph nodes (LN) and spleens were harvested. LN cells and splenocytes were isolated and cultured in X-vivo 15 medium (supplemented with 2 mM L-glutamine, 50 U/mL penicillin and 50 U/mL streptomycin; Lonza) in 96-well flat bottom plates. To investigate antigen-induced cell proliferation, 0.5×10^6 cells/well were cultured (200 μl/well) for 72 hours with different antigen concentrations (0-25 μg/ml) or with 12.5 μg/ml purified protein derivative (PPD; priming control; Statens serum institut, Copenhagen, Denmark). After 72 hours, supernatant was harvested and stored at −80° C. until further analysis. IFN-γ concentrations in supernatants were assessed by cytokine ELISA (R&D Systems, Abingdon, UK) to measure cell activation.

For “KKKAFVEQVANVVLKKK-NH2 [HIP-9K1-KKK, KKKAFVEQVANVVLKKK]”, the “tolerization against the peptide itself / parental peptide” value (LN) is reported as “tolerization induced”. Moreover, the “tolerization against SAg” value by setting is: (LN, escalating dose regime s.c.) “tolerization induced”; (spleen) “Tolerance is also induced”. Besides, the “tolerization against the peptide itself” value (spleen) is recorded as “Tolerance is also induced”.
